Key:
[1] = test system: sandbur; test: Test E postemergence; type: in vivo, Cenchrus echinatus; settings: Cenchrus echinatus, post-emergence, read-out: Plant response rating, Sandbur; for pest or weed control at 31 g/ha / pest or weed control at 62 g/ha / pest or weed control at 125 g/ha: Postemergence, scale 0 to 100; for pest or weed control at 31 g/ha: 31 g ai/ha; for pest or weed control at 62 g/ha: 62 g ai/ha; for pest or weed control at 125 g/ha: 125 g ai/ha; for pest or weed control at 16 g/ha: 16 g ai/ha
Summary of the method: (§1)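 Response was scored visually on a 0-100 scale (100 = complete control) versus controls after 14 to 21 days in the greenhouse. Test chemicals, formulated with surfactant in a non-phytotoxic solvent mixture, had been applied preemergence to seeds in silt loam soil or postemergence to 1- to 4-leaf plants in potting medium.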

[2] = test system: kochia; test: Test F preemergence; type: in vivo, Kochia scoparia; settings: 21 days, scale 0 to 100
Description: Seeds of plant species selected from bermudagrass (Cynodon dactylon), surinam grass (Brachiaria decumbens), large (Lg) crabgrass (Digitaria sanguinalis), crabgrass, naked (naked crabgrass, Digitaria nuda), foxtail, green (green foxtail, Setaria viridis), johnsongrass (Sorghum halepense), kochia (Kochia scoparia), morningglory (pitted morningglory, Ipomoea lacunosa), nutsedge, purple (purple nutsedge, Cyperus rotundus), ragweed (common ragweed, Ambrosia elatior), mustard, black (black mustard, Brassica nigra), guineagrass (Panicum maximum), dallisgrass (Paspalum dilatatum), barnyardgrass (Echinochloa crus-galli), sandbur (southern sandbur, Cenchrus echinatus), sowthistle (common sowthistle, Sonchus oleraceous), Italian ryegrass (Lolium multiflorum), signalgrass (broadleaf signalgrass, Brachiaria platyphylla), dayflower (Virginia (VA) dayflower, Commelina virginica), bluegrass (annual bluegrass, Poa annua), quackgrass (Elytrigia repens), mallow (common mallow, Malva sylvestris), buckwheat, wild (wild buckwheat, Polygonum convolvulus), leafy spurge (Euphorbia esula), chickweed (common chickweed, Stellaria media), wild poinsettia (Euphorbia heterophylla), and pigweed (Amaranthus retroflexus) were planted into a blend of loam soil and sand and treated preemergence with test chemicals formulated in a non-phytotoxic solvent mixture which included a surfactant.
Treated plants and controls were maintained in a greenhouse for 21 days, after which time all species were compared to controls and visually evaluated. Plant response ratings, summarized in Table F, are based on a scale of 0 to 100 where 0 is no effect and 100 is complete control. A dash (-) response means no test result.

[3] = test system: waterhemp_RES2 (ALS & HPPD resistant common waterhemp); test: Test E postemergence; type: in vivo, Amaranthus rudis; settings: Amaranthus tuberculatus, post-emergence, read-out: Plant response rating, Waterhemp_RES2; for pest or weed control at 31 g/ha / pest or weed control at 62 g/ha / pest or weed control at 125 g/ha: Postemergence, scale 0 to 100; for pest or weed control at 31 g/ha: 31 g ai/ha; for pest or weed control at 62 g/ha: 62 g ai/ha; for pest or weed control at 125 g/ha: 125 g ai/ha; for pest or weed control at 16 g/ha: postemergence, 16 g ai/ha, scale 0 to 100, 0 no effect, 100 complete control
Summary of the method: as §1

[4] = test system: waterhemp_RES1 (ALS & Triazine resistant common waterhemp); test: Test E postemergence; type: in vivo, Amaranthus rudis
Summary of the method: as §1

[5] = test system: waterhemp; test: Test E postemergence; type: in vivo, Amaranthus rudis; settings: Amaranthus tuberculatus, post-emergence, read-out: Plant response rating, Waterhemp; for pest or weed control at 31 g/ha / pest or weed control at 62 g/ha / pest or weed control at 125 g/ha: Postemergence, scale 0 to 100; for pest or weed control at 31 g/ha: 31 g ai/ha; for pest or weed control at 62 g/ha: 62 g ai/ha; for pest or weed control at 125 g/ha: 125 g ai/ha; for pest or weed control at 16 g/ha: 16 g ai/ha
Summary of the method: as §1

[6] = test system: Brazilian crabgrass; test: Test E postemergence; type: in vivo, Digitaria horizontalis; settings: Digitaria horizontalis, post-emergence, read-out: Plant response rating, Crabgrass, Brazil; for pest or weed control at 31 g/ha / pest or weed control at 62 g/ha / pest or weed control at 125 g/ha: Postemergence, scale 0 to 100; for pest or weed control at 31 g/ha: 31 g ai/ha; for pest or weed control at 62 g/ha: 62 g ai/ha; for pest or weed control at 125 g/ha: 125 g ai/ha; for pest or weed control at 16 g/ha: 16 g ai/ha
Summary of the method: as §1

[7] = postemergence, 8 g ai/ha, scale 0 to 100, 0 no effect, 100 complete control
[8] = postemergence, scale 0 to 100, 0 no effect, 100 complete control
[9] = Postemergence, 31 g ai/ha, scale 0 to 100
[10] = Postemergence, 62 g ai/ha, scale 0 to 100
[11] = Postemergence, 125 g ai/ha, scale 0 to 100
[12] = postemergence, 16 g ai/ha, scale 0 to 100, 0 no effect, 100 complete control

SMILES	pest or weed control at 31 g/ha [1] [%]	pest or weed control at 62 g/ha [1] [%]	pest or weed control at 125 g/ha [1] [%]	pest or weed control at 16 g/ha [1, 8] [%]	Plant response rating, Kochia ([2]; 16 g ai/ha)	Plant response rating, Kochia ([2]; 31 g ai/ha)	Plant response rating, Kochia ([2]; 62 g ai/ha)	Plant response rating, Kochia ([2]; 125 g ai/ha)	Plant response rating, Kochia ([2]; 250 g ai/ha)	pest or weed control at 31 g/ha [3] [%]	pest or weed control at 62 g/ha [3] [%]	pest or weed control at 125 g/ha [3] [%]	pest or weed control at 16 g/ha [3] [%]	Plant response rating, Waterhemp_RES1 [4, 9]	Plant response rating, Waterhemp_RES1 [4, 10]	Plant response rating, Waterhemp_RES1 [4, 11]	Plant response rating, Waterhemp_RES1 [4, 12]	pest or weed control at 31 g/ha [5] [%]	pest or weed control at 62 g/ha [5] [%]	pest or weed control at 125 g/ha [5] [%]	other results
N#Cc1cccc(Oc2ncc(Cl)cn2)c1-n1cc(OCC(F)(F)F)cn1 [Compound 274, 3-[(5-chloro-2-pyrimidinyl)oxy]-2-[4-(2,2,2-trifluoroethoxy)-1H-pyrazol-1-yl]benzonitrile]	10	15	0	0	100	100	100	100	100	85	95	100	80	80	90	100	75	90	95	98	pest or weed control at 8 g/ha [1, 7]: 0%; Plant response rating, Waterhemp_RES1 [4, 7]: 60; pest or weed control at 8 g/ha [5, 7]: 70%; pest or weed control at 16 g/ha [5, 8]: 95%; pest or weed control at 31 g/ha [6]: 25%; pest or weed control at 62 g/ha [6]: 35%; pest or weed control at 125 g/ha [6]: 50%; pest or weed control at 8 g/ha [6, 7]: 10%; pest or weed control at 16 g/ha [6, 8]: 20%
N#Cc1cccc(Oc2ncc(F)cn2)c1-n1cc(C(F)(F)F)cn1 [Compound 79, 3-[(5-fluoro-2-pyrimidinyl)oxy]-2-[4-(trifluoromethyl)-1H-pyrazol-1-yl]benzonitrile]	0	0	10	0	100	100	100	100	100	80	90	95	75	60	75	100	40	90	85	100	pest or weed control at 16 g/ha [5, 8]: 70%; pest or weed control at 31 g/ha [6]: 10%; pest or weed control at 62 g/ha [6]: 20%; pest or weed control at 125 g/ha [6]: 30%; pest or weed control at 16 g/ha [6, 8]: 0%
